# Values of other authors as cited in US20260057961A1, “CHROMOSOME 9P24 LOSS AND GAIN PREDICTS RESISTANCE AND BENEFIT OF IMMUNE CHECKPOINT INHIBITORS” (THE REGENTS OF THE UNIVERSITY OF CALIFORNIA, priority 2022, published 2026).
# Experiments:
# HNSC [1] = details: recurrent/metastatic setting after platinum failure
# HNSC [2] = system: HNSC
Substance,overall survival compared to chemotherapy or cetuximab (HNSC [1]),"overall survival compared to chemotherapy (HNSC [2]; pembrolizumab alone, approximately 20% of patients, with no PD-L1 expression)","survival versus platinum/5FU/cetuximab (HNSC [2]; pembrolizumab monotherapy, patients whose tumors expressed PD-L1 protein by immunohistochemistry)"
nivolumab,improved overall survival,,
pembrolizumab,improved overall survival,worse,improved survival
